From EP4664463A1, “COMPUTER-IMPLEMENTED METHOD FOR OLFACTORY PROPERTY PREDICTION” (Givaudan SA, priority 2024, dated 2025)
Positions count from the first letter of the chain named. Like-named read-outs stand apart in the source and are kept apart here.

How the values were obtained:
OR2M2 = experiment: Activation of modified OR2M2 by sulfur compounds in presence of copper (luciferase); assay type: cell-based, human; conditions: modified C-terminus
Excerpt: The most pungent odorant in human axillary sweat with an ODT of 1 picogram / L air is 3-methyl-3-sulfanyl-hexanol (also known as 3-methyl-3-mercapto-hexanol) (Natsch et al. identification of Odoriferous Sulfanylalkanols in Human Axilla Secretions and Their Formation through Cleavage of Cysteine Precursors by a C-S Lyase Isolated from Axilla bacteria. […] 2004; 1:1058-1072). So far, no OR has been described which can selectively detect this key odorant leading to undesired axilla odor in human subjects. By screening a library of receptor variants with the C-terminal sequence SEQ ID NO: 86 in presence of copper against a library of 52 sulfur compounds (see example 5), a hitherto orphan receptor, OR2M2, was identified, which is activated by 3-methyl-3-mercapto-hexanol and closely related chemicals, but not by other sulfur odorants (Figure 19).

OR8K3 [1] = target: T1, OR8K3 (Homo sapiens, UniProt Q8NH51, D295E/Y298D); experiment: cell-based; assay type: cell-based
T1 construct: expressed in transfected cells; host or cells: HEK293T cells stably expressing human RTP1S (V227I) and RTP2 (L220R)
T1 sequence (Q8NH51 with tags, fused parts or gaps D295E/Y298D): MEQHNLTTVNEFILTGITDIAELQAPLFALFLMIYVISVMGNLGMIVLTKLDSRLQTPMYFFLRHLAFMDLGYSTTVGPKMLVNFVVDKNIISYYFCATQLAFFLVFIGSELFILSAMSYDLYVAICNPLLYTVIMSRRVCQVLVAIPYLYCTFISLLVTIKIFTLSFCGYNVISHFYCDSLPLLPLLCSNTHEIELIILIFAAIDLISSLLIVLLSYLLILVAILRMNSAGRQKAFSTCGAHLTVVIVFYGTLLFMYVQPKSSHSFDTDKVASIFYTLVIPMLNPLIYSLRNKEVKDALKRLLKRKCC
Excerpt: (§1) To create an expression plasmid, an OR coding sequence fused at the end of TM7 to the desired C-terminus sequence was synthesized by a DNA synthesis service provider (BioCat GmbH, Germany) and inserted into pcDNA3.1(+) (Invitrogen, MA, USA) downstream of the CMV promoter sequence (SEQ ID NO: 82) using BamHI and Notl restriction sites. All the synthetic OR nucleotide sequences described below in Examples 1-15 further contained at their N-terminus a nucleotide sequence encoding a signal peptide (mmLucy-FLAG-rho, SeQ ID NOs: 80, 81) and at the C-terminus the bgh terminator sequence (SEQ ID NO: 83). All the OR expression plasmids also contain a Kozak sequence (GCCACC) between the BamHI restriction site and the start codon of the signal peptide. These plasmids thus contain a constitutively expressed OR gene.
(§2) Thus, using the improved sensitivity of the assay provided by the modified variant, activation of OR8K3 by a broader set of mint-smelling molecules can be detected.
(§3) Knowing the importance of the C-terminal sequence for proper expression as observed in the previous examples, an obvious way to improve expression might be just to provide a hybrid receptor whereby the C-terminal domain in a non-functional or poorly functional receptor is replaced by the C-terminal domain of a functional receptor. […] Thus the C-terminal sequence of OR8K3 was replaced with the C-terminal sequence of the ambrettolide-receptor OR1N2 or the musk receptor OR5AN1. […] Thus the improvement achieved with the modified C-terminal sequences of this disclosure cannot be achieved by simply generating chimeric receptors combining a functional C-terminal domain of a functional receptor with a poorly expressed receptor.

OR8K3 [2] = target: T2, OR8K3 (Homo sapiens, UniProt Q8NH51); experiment: cell-based; assay type: cell-based
T2 construct: expressed in transfected cells; host or cells: HEK293T cells stably expressing human RTP1S (V227I) and RTP2 (L220R)
T2 sequence (Q8NH51 1-312): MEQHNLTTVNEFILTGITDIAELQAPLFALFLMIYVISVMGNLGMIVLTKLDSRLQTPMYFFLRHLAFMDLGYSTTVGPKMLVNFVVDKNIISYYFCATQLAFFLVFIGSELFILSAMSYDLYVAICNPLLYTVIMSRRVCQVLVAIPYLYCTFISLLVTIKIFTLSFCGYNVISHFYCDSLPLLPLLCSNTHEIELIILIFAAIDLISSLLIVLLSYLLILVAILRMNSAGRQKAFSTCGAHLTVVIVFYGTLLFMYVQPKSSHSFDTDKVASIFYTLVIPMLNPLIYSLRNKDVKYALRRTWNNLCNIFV
Excerpt: as §1, §2, §3

OR8K3 [3] = experiment: cell-based; assay type: cell-based, human
Excerpt: as §1, §2, §3

OR10J5 [4] = target: T3, OR10J5 (Homo sapiens, UniProt Q8NHC4); experiment: cell-based; assay type: cell-based
T3 construct: expressed in transfected cells; host or cells: HEK293T cells stably expressing human RTP1S (V227I) and RTP2 (L220R)
T3 sequence (Q8NHC4 with tags, fused parts or gaps): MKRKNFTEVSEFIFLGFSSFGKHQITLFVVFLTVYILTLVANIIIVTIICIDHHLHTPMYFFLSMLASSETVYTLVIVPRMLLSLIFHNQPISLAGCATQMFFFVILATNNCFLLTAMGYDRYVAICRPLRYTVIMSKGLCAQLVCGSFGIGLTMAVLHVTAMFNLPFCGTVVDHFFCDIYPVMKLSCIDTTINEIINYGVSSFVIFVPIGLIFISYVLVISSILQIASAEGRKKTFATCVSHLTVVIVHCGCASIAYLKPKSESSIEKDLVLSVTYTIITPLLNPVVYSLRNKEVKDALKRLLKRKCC
Excerpt: as §1

OR10J5 [5] = target: T4, OR10J5 (Homo sapiens, UniProt Q8NHC4); experiment: cell-based; assay type: cell-based; remark: listed apart in the source
T4 construct: expressed in transfected cells; host or cells: HEK293T cells stably expressing human RTP1S (V227I) and RTP2 (L220R)
T4 sequence (Q8NHC4 1-309): T3 sequence (Q8NHC4 with tags, fused parts or gaps) with K301C, L303V, L304V, K305G, K307N, C308I, C309S
Excerpt: as §1

OR10J5 [6] = experiment: cell-based; assay type: cell-based, human
Excerpt: as §1

OR5B12 [7] = target: T5, OR5B12 (Homo sapiens, UniProt Q96R08); experiment: cell-based; assay type: cell-based; conditions: wild-type; for EC50: read-out: Potency EC50
T5 construct: expressed in transfected cells; host or cells: HEK293T cells stably expressing human RTP1S (V227I) and RTP2 (L220R)
T5 sequence (Q96R08 1-314): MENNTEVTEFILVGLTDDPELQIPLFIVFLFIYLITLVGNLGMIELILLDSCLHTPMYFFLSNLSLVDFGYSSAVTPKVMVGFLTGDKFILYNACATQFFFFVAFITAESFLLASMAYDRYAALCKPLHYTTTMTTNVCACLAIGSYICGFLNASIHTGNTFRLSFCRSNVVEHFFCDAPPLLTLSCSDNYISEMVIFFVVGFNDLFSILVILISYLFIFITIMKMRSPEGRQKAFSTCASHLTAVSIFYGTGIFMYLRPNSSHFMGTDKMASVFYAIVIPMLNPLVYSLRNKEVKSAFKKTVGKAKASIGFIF
Excerpt: as §1

OR5B12 [8] = experiment: cell-based; assay type: cell-based, human
Excerpt: as §1

OR5B12 [9] = target: T6, OR5B12 (Homo sapiens, UniProt Q96R08); experiment: cell-based; assay type: cell-based; conditions: for EC50: changed C-term SEQ ID NO: 86, read-out: Potency EC50; for Detection threshold; concentration for 2-fold induction: changed C-term. SEQ ID NO: 86
T6 construct: expressed in transfected cells; host or cells: HEK293T cells stably expressing human RTP1S (V227I) and RTP2 (L220R)
T6 sequence (Q96R08 with tags, fused parts or gaps): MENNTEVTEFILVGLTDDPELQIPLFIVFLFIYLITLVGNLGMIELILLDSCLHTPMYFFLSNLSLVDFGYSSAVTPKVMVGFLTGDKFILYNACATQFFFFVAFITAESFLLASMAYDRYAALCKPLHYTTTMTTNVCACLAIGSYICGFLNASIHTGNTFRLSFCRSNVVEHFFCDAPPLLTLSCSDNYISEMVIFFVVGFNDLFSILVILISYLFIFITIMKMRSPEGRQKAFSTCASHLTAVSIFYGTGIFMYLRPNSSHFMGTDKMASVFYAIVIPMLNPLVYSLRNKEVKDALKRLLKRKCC
Excerpt: as §1

OR7D4 = target: T7, OR7D4 (Homo sapiens, UniProt Q8NG98, D296E/E302K/G299D); experiment: cell-based; assay type: cell-based; conditions: for EC50: read-out: Potency EC50
T7 construct: expressed in transfected cells; host or cells: HEK293T cells stably expressing human RTP1S (V227I) and RTP2 (L220R)
T7 sequence (Q8NG98 with tags, fused parts or gaps D296E/G299D/E302K limits assumed): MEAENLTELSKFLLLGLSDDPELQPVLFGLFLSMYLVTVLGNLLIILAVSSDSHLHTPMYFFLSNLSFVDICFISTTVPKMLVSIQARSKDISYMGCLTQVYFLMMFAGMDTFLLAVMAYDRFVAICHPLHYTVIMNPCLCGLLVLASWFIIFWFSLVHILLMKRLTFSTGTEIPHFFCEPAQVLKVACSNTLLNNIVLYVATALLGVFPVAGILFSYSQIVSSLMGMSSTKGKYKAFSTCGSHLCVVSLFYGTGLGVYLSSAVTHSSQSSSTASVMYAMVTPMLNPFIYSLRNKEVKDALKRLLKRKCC
Excerpt: as §1
Similarly, in Figure 7 the dose-response of OR7D4 is shown when tested both with androstenone and the closely related molecule androstenol. […] Thus, a better understanding of the receptive space of OR7D4 is possible based on the improved sensitivity of the assay provided by the modified variant.

[10] = changed C-term SEQ ID NO: 86, read-out: Potency EC50
[11] = wild-type, read-out: Potency EC50

In the case of `CC1=CCC(C(C)(C)S)CC1` (stereo not drawn) [1-p-Menthene-8-thiol], the “activation of OR2M2” value (OR2M2) is reported as “activated”.

With `CC1CCC(C(C)C)C(O)C1` (stereo not drawn) [Menthol] the “Detection threshold; concentration for 2-fold induction” value (OR8K3 [1]) was 11 µM, the EC50 (OR8K3 [1]; [10]) was 115 µM and the “Detection threshold; concentration for 2-fold induction” value (OR8K3 [2]) was 160 µM. The EC50 (OR8K3 [2]; [11]) was 236 µM, the Comments on efficacy (OR8K3 [3]) was 3-fold lower maximal induction for wild-type and the Fold-improvement potency (OR8K3 [3]) was 2. For the same compound, the functional response (OR8K3 [3]; OR8K3 with C-terminal sequence of OR1N2 or OR5AN1) was “did not show any functional response”.

`C/C(=C\CCC=O)CCCC(C)(C)O` [Mahonial, (4E)-9-hydroxy-5,9-dimethyl-4-Decenal] was tested, and the “Detection threshold; concentration for 2-fold induction” value (OR10J5 [4]) was 0.65 µM, the EC50 (OR10J5 [4]; [10]) was 20 µM and the “Detection threshold; concentration for 2-fold induction” value (OR10J5 [5]) was 7.42 µM. For the same compound, the EC50 (OR10J5 [5]; [11]) was 46 µM, the Fold-improvement potency (OR10J5 [6]) was 2.3 and the Fold-improvement threshold (OR10J5 [6]) was 11.5.

In the case of `CCCCCC1C(=O)CCC1CC(=O)OC` (stereo not drawn) [Hedione], the “Detection threshold; concentration for 2-fold induction” value (OR5B12 [7]) is reported as “n.i. >>( 250) µM”, the EC50 (OR5B12 [7]) is reported as > 250 µM and the Comments on efficacy (OR5B12 [8]) is reported as “Induction wild-type only 1.75-fold”. For the same compound, the Fold-improvement potency (OR5B12 [8]) was >5, the Fold-improvement threshold (OR5B12 [8]) was >9 and the EC50 (OR5B12 [9]) was 58.3 µM. The “Detection threshold; concentration for 2-fold induction” value (OR5B12 [9]) was 29 µM.

In the case of `CCCCCC1C(=O)CCC1CC(=O)OC` (stereo not drawn) [Hedione HC], the “Detection threshold; concentration for 2-fold induction” value (OR5B12 [7]) is reported as 96 µM, the EC50 (OR5B12 [7]) is reported as 69 µM and the Comments on efficacy (OR5B12 [8]) is reported as 4-fold lower maximal induction for wild-type. The Fold-improvement potency (OR5B12 [8]) was 3.8, the Fold-improvement threshold (OR5B12 [8]) was 11 and the EC50 (OR5B12 [9]) was 18.3 µM. The “Detection threshold; concentration for 2-fold induction” value (OR5B12 [9]) was 8.8 µM.

For `CCCC(C)(S)CCO` (stereo not drawn) [3-methyl-3-sulfanyl-hexanol], the “activation of OR2M2” value (OR2M2) was “activated”.

For `C[C@]12CCC(=O)C[C@@H]1CC[C@@H]1[C@@H]2CC[C@]2(C)C=CC[C@@H]12` [Androstenone], the Comments on efficacy (OR7D4) was 3-fold lower maximal induction for wild-type, the Fold-improvement potency (OR7D4) was 66 and the EC50 (OR7D4; changed C-term SEQ ID NO: 86) was 0.13 µM. The EC50 (OR7D4; wild-type) was 8.44 µM.
